*1 amine or outer side, *2 acyl side, *3 side chain or, on linkers, in order; H or OH if unused. Where a SMILES comes first, the peptide text is derived from it. Bridges are numbered along the chain shown (N, C = ends). [ ]: non-standard residue; d: D form. Adda = CO[C@@H](Cc1ccccc1)[C@@H](C)/C=C(C)/C=C/[C@H](N[*:1])[C@H](C)C(=O)[*:2]; dAsp(3S-Me) = C[C@H](C(=O)[*:3])[C@@H](N[*:1])C(=O)[*:2]; d(γGlu) = O=C(O)[C@@H](CCC(=O)[*:2])N[*:1]; hTyr = N[C@@H](CCc1ccc(O)cc1)C(=O)O; NMeA = CN[C@@H](C)C(=O)O; Abu = CC[C@H](N)C(=O)O; NMeDha = C=C(NC)C(=O)O; CO = O=C([*:1])[*:2]
What was measured:
[1] = system: River Chriesbach biofilm suspensions
[2] = system: River Chriesbach biofilm suspension
[3] = system: River Chriesbach biofilm suspension (100%)
[4] = system: River Chriesbach biofilm suspension (100%, 10%, 1%)
[5] = system: River Chriesbach river water

| Molecule | biodegradability in biofilm suspensions (in words) [1] | removal within 3 days [2] | 1.3d removal, 2% metabolite [3] [%] | 1.3d removal, 10% metabolite [3] [%] | 1.3d removal, 100% metabolite [3] [%] | Half-lives (h), 100% metabolite [3] | 1d removal, 1% biofilm [4] [%] | 1d removal, 10% biofilm [4] [%] | 1d removal, 100% biofilm [4] [%] | Half-lives (h), 1% biofilm [4] | Half-lives (h), 10% biofilm [4] | Half-lives (h), 100% biofilm [4] | 1d removal, River water [5] [%] | Half-lives (h), River water [5] | other results |
| --- | --- | --- | --- | --- | --- | --- | --- | --- | --- | --- | --- | --- | --- | --- | --- |
| CC[C@H](C)[C@@H]1NC(=O)[C@H](NC(=O)N[C@@H](Cc2c[nH]c3ccccc23)C(=O)O)CCCCNC(=O)[C@H](Cc2ccccc2)NC(=O)[C@H](C)N(C)C(=O)[C@H](CCc2ccc(O)cc2)NC1=O [Ferintoic acid B] ({Trp-CO}-[dK]I[hTyr][NMeA]F; lactam 1-C) | did not show detectable biotransformation |  |  |  |  |  |  |  |  |  |  |  |  |  |  |
| C=C1C(=O)N[C@H](C)C(=O)N[C@@H](CCc2ccc(O)cc2)C(=O)N[C@@H](C(=O)O)[C@H](C)C(=O)N[C@@H](CCCNC(=N)N)C(=O)N[C@@H](/C=C/C(C)=C/[C@H](C)[C@H](Cc2ccccc2)OC)[C@H](C)C(=O)N[C@@H](C(=O)O)CCC(=O)N1C [MC-HtyR] (R[Adda][d(γGlu)][NMeDha][dA][hTyr][dAsp(3S-Me)]-OH; lactam N-7) | biodegradable | 31% | 33 | 14 | 9 | 70.4 h | -13 | 19 | 17 | n.d.(decay) | n.d.(decay) | 51.8 h | -36 | n.d.(decay) |  |
| C=C1C(=O)N[C@H](C)C(=O)N[C@@H](CC(C)C)C(=O)N[C@@H](C(=O)O)[C@H](C)C(=O)N[C@@H](CC)C(=O)N[C@@H](/C=C/C(C)=C/[C@H](C)[C@H](Cc2ccccc2)OC)[C@H](C)C(=O)N[C@@H](C(=O)O)CCC(=O)N1C [MC-LAba] ([Abu][Adda][d(γGlu)][NMeDha][dA]L[dAsp(3S-Me)]-OH; lactam N-7) | remained rather stable | < 13% | -7 | -2 | 8 | n.d. (decay) | -6 | 13 | -8 | n.d.(decay) | n.d.(decay) | n.d.(decay) | -11 | n.d.(decay) |  |
| Anabaenopeptin 871 | did not show detectable biotransformation |  |  |  |  |  |  |  |  |  |  |  |  |  |  |
| Anabaenopeptin D | did not show detectable biotransformation |  |  |  |  |  |  |  |  |  |  |  |  |  |  |
| Oscillamide Y |  | 32-35% | 100 | 98 | 51 | 33.9 h | 1 | 28 | 86 | 191.5 h | 101.7 h | 11.1 h | -24 | n.d.(decay) | Half-lives (h), 2% metabolite [3]: 7.1 h; Half-lives (h), 10% metabolite [3]: 12.8 h; Lag-time (h), 2% metabolite [3]: 6.8 h; Lag-time (h), 10% metabolite [3]: 11.7 h; Lag-time (h), 100% metabolite [3]: 33.8 h; Lag-time (h), 1% biofilm [4]: 0.0 h; Lag-time (h), 10% biofilm [4]: 99.6 h; Lag-time (h), 100% biofilm [4]: 9.4 h; Lag-time (h), River water [5]: n.d.(decay); expected river water half-lives [5]: 7.2 to 8.0 days |

From publication PMC12490008 (Environmental Science & Technology, 2025)
